Measured values reported in US4041032A, “Pyrazine derivatives” (priority 1974, dated 1977).
Read-outs that look alike come from different tables or passages of the source.

Experiments:
[1] = system: emesis induced by apomorphine; test: Antiemetic activity, oral (apomorphine-induced emesis); assay type: in vivo, dog; conditions: for ED50: Canis lupus familiaris, po, dog, p.o. in capsules with lactose, 90 min before apomorphine 0.1 mg/kg s.c., Table II; for Activity efficiency (ED50 p.o/ED50 s.c): antiemetic ED50, dog
Description: 2. Oral administration: Each of the test samples was mixed with lactose and was filled in capsules. The capsules were orally administered to a dog, 0.1 mg./kg. of apomorphine was administered to the dog by subcutaneous injection after 90 minutes, and then the frequency of emesis was measured within 30 minutes after the apomorphine injection. (Each dog was used only once.) The drugs were evaluated by ED50 values in the same way as described in Experiment I-a.

in vivo = conditions: for selectivity ratio: LD50 mouse i.v. / antiemetic ED50 dog s.c., x 1/1000, Table I, read-out: Safety margin (LD50/ED50); for LD50 at 168 h: iv, mouse, i.v. tail injection, mortality after one week, Table I, read-out: Toxicity LD50
Description: Each of the test samples was injected intravenously to a mouse in the tail portion at a rate of 0.1 ml./10 g./10 sec. by an up and down method. The mortality rate after one week was checked and from the relation between the amount of the sample used and the mortality rate, LD50 (mg/kg) was determined.

[2] = Cataleptic activity (Courvoisier's method); conditions: in vivo, sc, rat
Description: According to the Courvoisier's method (Courvoisier, S, Durcot, R. & Jolou, L, (1957), Psychotropic drugs (Ed. Garattini, S and Ghetti, V.), p. 373, Else vier Publishing Company, Amsterdam, London, New York, Princeton), the four limbs of a rat were placed on four rubber stoppers and when the rat could maintain the same pose for 30 seconds, the rat was determined to be positive. The catalepsy was measured every 30 minutes till 240 minutes after the subcutaneous administration of the sample. The sample that produced a positive response in rat even once was determined to be positive in the cataleptic test. From the relation between the positive response and the amount of the sample, ED50 (mg/kg) was determined.

[3] = system: emesis induced by apomorphine; test: Antiemetic activity, subcutaneous (apomorphine-induced emesis); assay type: in vivo, dog; conditions: for ED50: Canis lupus familiaris, sc, read-out: Antiemetic activity ED50 (s.c); for Antiemetic activity ED50 (s.c): Table II
Description: Each of the test samples was administered to a dog by subcutaneous injection; then 0.1 mg./kg. of apomorphine was administered to a dog by subcutaneous injection after 30 minutes, and the frequency of emesis within 30 minutes after the injection was measured. (Each dog was used only once). From the frequency of emesis, the inhibition rate was calculated and from the relation between the amount of the sample used and the inhibition rate, ED50 (μg/kg.) was determined. Drug activity was assessed by ED50 values.
1. Subcutaneous administration:
Same as Experiment (I-a).

[4] = system: spontaneous motility of the stomach; test: Effect of stimulating gastric motility (ballon method); assay type: in vivo; conditions: anesthetized dog, i.v.; Table III
Description: After anesthetizing a dog which had fasted overnight by intravenously injecting 30 mg./kg. of pentobarbital, each of the test samples was injected intravenously and then the spontaneous motility of the stomach was recorded by means of a polygraph (RM-150, made by Nihon Koden K. K.) according to the ballon method (Jap. J. Smooth Muscle Res., 2, 15(1966)). In addition, the effect of stimulating the gastric motility was denoted as (+) and (++) respectively when 10 mg./kg. and 5 mg./kg. each of the sample was intervenously injected and the stimulated motility of the stomach continued longer than 20 minutes.

gastric motility = conditions: in vivo; cited from earlier work
catalepsy = conditions: in vivo; cited from earlier work
emesis = conditions: in vivo; cited from earlier work
[5] = s.c., every 30 min till 240 min, symbol of Table II, read-out: Catalepsy ED50 (not measurable, symbol)
[6] = dog, s.c., 30 min before apomorphine 0.1 mg/kg s.c., Table I
[7] = dog, s.c., 30 min before apomorphine 0.1 mg/kg s.c.

SMILES	ED50 [1]	Activity efficiency (ED50 p.o/ED50 s.c) [1]	selectivity ratio (in vivo)	LD50 at 168 h (in vivo)	ED50 at 4 h [2, 5]	ED50 [3, 6]	Antiemetic activity ED50 (s.c) [3, 7]	Effect of stimulating gastric motility [4]	ED50 at 4 h ([2]; s.c., every 30 min till 240 min, Table II, read-out: Catalepsy ED50)	ED50 [3]	ED50 at 4 h [2]	Effect on gastric motility, literature (gastric motility)	Catalepsy, literature (catalepsy)	Antiemetic activity, literature (emesis)
CCN1CCCC1CNC(=O)c1nc(Cl)c(N)nc1OC (centres unmarked) [N-(1-ethylpyrrolidin-2-ylmethyl)-5-amino-6-chloro-3-methoxypyrazine-2-carboxamide]	0.004 mg/kg	2.0	45700	91.3 mg/kg	> 100 mg/kg	0.002 mg/kg								
CCN1CCCC1CNC(=O)c1nc(Cl)cnc1OC (centres unmarked) [N-(1-ethylpyrrolidin-2-ylmethyl)-5-chloro-2-methoxypyrazine-3-carboxamide]			8500	170 mg/kg		0.02 mg/kg								
CCNc1nc(OC)c(C(=O)NCC2CCCN2CC)nc1Cl (centres unmarked) [N-(1-ethylpyrrolidin-2-ylmethyl)-6-chloro-5-ethylamino-3-methoxypyrazine-2-carboxamide]	0.006 mg/kg	2.3	23500	61.1 mg/kg	> 100 mg/kg	0.0026 mg/kg	0.0026 mg/kg							
CCNc1nc(OC)c(C(=O)NCC2CCCN2C)nc1Cl (centres unmarked) [N-(1-methylpyrrolidin-2-ylmethyl)-6-chloro-5-ethylamino-3-methoxypyrazine-2-carboxamide]			15000	45 mg/kg		0.003 mg/kg								
CCOc1nc(N)c(Cl)nc1C(=O)NCCN(CC)CC [N-(2-diethylaminoethyl)-5-amino-6-chloro-3-ethoxypyrazine-2-carboxamide]			6010	72.1 mg/kg		0.012 mg/kg								
CCN(CC)CCNC(=O)c1nc(Cl)c(N)nc1OC [N-(2-diethylaminoethyl)-5-amino-6-chloro-3-methoxypyrazine-2-carboxamide]	0.07 mg/kg	5.8	12500	150 mg/kg	> 100 mg/kg	0.012 mg/kg	0.012 mg/kg							
CCN(CC)CCNC(=O)c1nc(Cl)c(Nc2ccccc2)nc1OC [N-(2-diethylaminoethyl)-5-anilino-6-chloro-3-methoxypyrazine-2-carboxamide]								+ to ++						
CCN(CC)CCNC(=O)c1nc(Cl)c(NC)nc1OC [N-(2-diethylaminoethyl)-6-chloro-3-methoxy-5-methylaminopyrazine-2-carboxamide]			9100	91 mg/kg		0.01 mg/kg								
CCNc1nc(OC)c(C(=O)NCCN(CC)CC)nc1Cl [N-(2-diethylaminoethyl)-6-chloro-5-ethylamino-3-methoxypyrazine-2-carboxamide]	0.065 mg/kg	3.3	4550	91 mg/kg	> 100 mg/kg	0.02 mg/kg	0.02 mg/kg	+ to ++						
CN(C)CCCN1c2ccccc2Sc2ccc(Cl)cc21 [chlorpromazine, reference compound]	2 mg/kg	8.0	290	71.4 mg/kg			0.25 mg/kg		7 mg/kg	0.25 mg/kg				
CCN(CC)CCNC(=O)c1cc(Cl)c(N)cc1OC [metoclopramide, N-(diethylaminoethyl)-4-amino-5-chloro-2-methoxybenzamide, reference compound]	0.13 mg/kg			61 mg/kg		0.03 mg/kg	0.03 mg/kg				45 mg/kg	effect of stimulating gastric motility	produces catalepsy as a side effect	stronger antiemetic activity than chlorpromazine
